In this experiment the target is STAT3 (Homo sapiens, UniProt P40763). Briefly: microscale thermophoresis (MST), recombinant human STAT3. It is filed as binding. In general terms: In MST a laser heats a spot of the sample, and binding alters the fluorescence response.
Chain of STAT3 (P40763 2-770): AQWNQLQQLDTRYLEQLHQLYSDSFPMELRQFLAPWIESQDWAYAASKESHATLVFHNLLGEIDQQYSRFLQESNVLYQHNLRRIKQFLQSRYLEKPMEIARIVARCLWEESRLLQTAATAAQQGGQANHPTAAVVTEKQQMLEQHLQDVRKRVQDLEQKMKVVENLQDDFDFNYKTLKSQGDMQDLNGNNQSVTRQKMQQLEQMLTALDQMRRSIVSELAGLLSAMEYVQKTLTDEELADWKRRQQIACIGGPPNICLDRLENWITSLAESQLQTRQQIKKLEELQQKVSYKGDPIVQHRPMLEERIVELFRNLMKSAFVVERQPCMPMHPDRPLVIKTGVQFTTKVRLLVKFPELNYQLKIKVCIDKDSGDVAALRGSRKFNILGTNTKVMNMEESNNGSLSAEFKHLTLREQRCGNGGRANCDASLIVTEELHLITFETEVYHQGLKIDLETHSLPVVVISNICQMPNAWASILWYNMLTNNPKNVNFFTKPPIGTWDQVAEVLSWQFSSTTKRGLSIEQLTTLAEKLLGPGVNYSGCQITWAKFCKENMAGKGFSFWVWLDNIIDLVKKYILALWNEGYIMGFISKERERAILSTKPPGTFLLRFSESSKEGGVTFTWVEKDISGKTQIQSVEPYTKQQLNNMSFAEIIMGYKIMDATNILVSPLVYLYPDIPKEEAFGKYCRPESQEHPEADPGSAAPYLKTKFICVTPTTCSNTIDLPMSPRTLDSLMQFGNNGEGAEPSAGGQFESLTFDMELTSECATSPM

Take `CC(=O)O[C@@H]1C[C@H](O)[C@@]23CO[C@@H](O)[C@]1(C)[C@@H]2C[C@@H](O)[C@]1(C)[C@@H]3C(=O)[C@H](OC(C)=O)[C@@]2(C)[C@H](c3ccoc3)C[C@H]3O[C@]321` [TSN, toosendanin]: the Kd (as a rule, the equilibrium constant for the complex coming apart) was 296 nM.

The values above are taken from publication PMC9746828, “Small-molecule PROTAC mediates targeted protein degradation to treat STAT3-dependent epithelial cancer” (JCI Insight, 2022).
